The values below come from PMC9388626, “STUB1 is an intracellular checkpoint for interferon gamma sensing” (Scientific Reports, 2022).

In data set [1] the test system is B16-F10 cells. Kind of data set: Western blot, protein expression after 24 h IFNγ. The class given is cell-based, murine. The procedure:
Parental, CRISPR-edited or biologic-overexpressed tumour cells were seeded in a cell density of 60,000 (B16-F10), 150,000 (CT26), 100,000 (A375), or 200,000 (A549) per well in 12-well plate filled with 0.8 ml culture media + 10% FBS. After overnight incubation, the culture media were replaced with 1 ml fresh media supplemented with 10% FBS and the designated concentration of the recombinant mouse IFNγ (R&D Systems, #485-MI-100) or recombinant human IFNγ (R&D Systems, #285-IF-100). The cells were stimulated with the cytokine for 24 h before they were harvested by trypsinization for flow cytometry, western blot, or qPCR analysis (6 h treatment).
(§1) Cells were dissociated from the wells with 0.25% trypsin (Gibco, 25200056). After rinsing with 0.5 ml PBS, the cell pellets were lysed with chilled cell lysis buffer (Cell Signaling Technology, #9803) supplemented with Halt protease inhibitor cocktail (Thermo Scientific, #78430) and phosphatase inhibitor (Sigma-Aldrich, # 4906837001) for 30 min with intermittent vortexing. The lysate was transferred into PCR-strip tubes and sonicated in a chilled water bath sonicator (QSonica). Lysates were clarified by centrifugation at 15,000 rpm at 4 °C for 15 min. Protein concentration was determined using BCA protein assay kit (Pierce, #23225). The lysates were mixed with LDS sample buffer (Life Technologies, NP0008) and sample reducing agent (Life Technologies, NP0009), followed by heating at 70 °C for 10 min to fully denature the protein. […] Membrane blots were pre-stained with total protein stain (LI-COR, # 926-11016) and imaged with Odyssey CLx. […] The blots were finally probed, for overnight at 4 °C, with the appropriate primary antibodies diluted in Intercept (TBS) blocking buffer supplemented with 0.1% (v/v) Tween-20, followed by the secondary antibodies (IRDye 800CW donkey anti-rabbit or anti-mouse IgG, LI-COR) for 1 h at room temperature. Fluorescent signals were imaged and quantified using Odyssey CLx and Image Studio v5.0. Primary antibodies used were: STUB1/CHIP (Cell Signaling Technology, #2080, 1:2000 dilution), STAT1 (Cell Signaling Technology, #14995, 1:10,000 dilution), phospho-Tyr701-STAT1 (Cell Signaling Technology, #9167, 1:2000 dilution), STAT2 (Cell Signaling Technology, #72604, 1:2000 dilution), IRF1 (Cell Signaling Technology, #8478, 1:2000 dilution), PSMB8 (Cell Signaling Technology, #13635, 1:2000 dilution), PSMB9 (Abcam, ab184172, 1:10,000 dilution), and PSMB10 (Abcam, ab183506, 1:10,000 dilution).
On the technique in general: Immunoblotting shows a protein as a band on a membrane.

Data set [2] deals with B16-F10 cells. Kind of data set: Gene expression profiling with NanoString PanCancer IO 360. The class given is cell-based, murine. The note with it: Stub1-null B16-F10, 0.03 ng ml^−1 IFNγ, 6 h or 24 h. The procedure:
After overnight incubation, the culture media were replaced with fresh media (DMEM + 10% FBS) supplemented with 0.03 ng ml^−1 of recombinant mouse IFNγ (R&D Systems, #485-MI-100). Total RNA from untreated cells (24 h) and IFNγ-treated cells (6 or 24 h) were extracted with RNeasy plus mini kit (Qiagen, 74134) according to manufacturer’s protocol. An input of 150 ng RNA from each sample was mixed with the NanoString reporter and capture probes (nCounter Mouse PanCancer IO 360, # XT-CSPS-MIO360-12), and incubated at 65 °C for 20 h. The hybridized samples were processed on the nCounter prep station, and the resulting cartridge was scanned by the nCounter digital analyzer using 555 fields of view. Raw count data were evaluated for quality control and normalized with 19 housekeeping genes using nSolver 4.0 software (Supplementary Table S3). Tlk2 was excluded from the housekeeping gene due to weak expression (RNA counts < 80). […] Weakly expressed genes, where the normalized RNA counts were consistently less than 80 in all samples, were excluded from fold change analysis, resulting in an evaluable set of 493 out of 750 genes (Supplementary Fig. 4a). As an overview, all 750 targeted genes were included in the scatter plot analysis (Supplementary Fig. 4b–d).

The subject of data set [3] is B16-F10 cells. Kind of data set: Western blot, IRF1, STAT1 and phospho-Tyr701-STAT1 at 2 h post IFNγ. The class given is cell-based, murine. The note with it: Stub1-null B16-F10, 2 h. The procedure: as §1, with “Primary antibodies used were: STUB1/CHIP (Cell Signaling Technology, #2080, 1:2000 dilution), STAT1 (Cell Signaling Technology, #14995, 1:10,000 dilution), phospho-Tyr701-STAT1 (Cell Signaling Technology, #9167, 1:2000 dilution), STAT2 (Cell Signaling Technology, #72604, 1:2000 dilution), IRF1 (Cell Signaling Technology, #8478, 1:2000 dilution), PSMB8 (Cell Signaling Technology, #13635, 1:2000 dilution), PSMB9 (Abcam, ab184172, 1:10,000 dilution), and PSMB10 (Abcam, ab183506, 1:10,000 dilution).” left out

The subject of data set [4] is PC-3 cells. Kind of data set: Lumit immunoassay, phospho-Tyr701-STAT1. The class given is cell-based, human. As to conditions: PC-3, PTPN2 or STUB1 loss, 30 min. The procedure:
(§2) Parental and CRISPR-edited tumour cells were seeded in a cell density of 12,500 (DU145), 15,000 (PC-3), or 30,000 (MCF7) per well in 384-well plate (Greiner Bio-One, #781080) filled with 25 µl culture media + 10% FBS. After 20–24 h incubation, the cells were treated with recombinant human IFNγ (R&D Systems, #285-IF-100) by adding an equal volume of the complete culture media containing the cytokine. After 30 min of stimulation, the culture media were removed by gentle spin using Blue Washer (BlueCatBio). Lumit immunoassay (Promega, #W1202) was performed according to manufacturer’s instrutions. The assay buffer was supplemented with Halt protease and phosphatase inhibitor cocktail (Thermo Scientific, #78443). The cells were lyzed with 12 µl per well of lysis solution (0.02% digitonin) for 20 min. The cell lystates were probed for 90 min with 12 µl of mixture of primary antibodies, which include anti-STAT1 rabbit antibody (Cell Signaling Technology, #14994), anti-pSTAT1 (Tyr701) mouse antibody (Abcam, ab29045), Lumit anti-mouse antibody-LgBiT (Promega) and Lumit anti-rabbit antibody-SmBiT (Promega). Final concentration of each antibody is 0.15 µg ml^−1. After 2 min incubation in the presence of the Lumit detection reagent (6 µl), the luminescence signals were detected by Infinite M1000 PRO (Tecan).

The test system of data set [5] is DU145 cells. Kind of data set: Lumit immunoassay, phospho-Tyr701-STAT1. The class given is cell-based, human. The note with it: DU145, PTPN2 or STUB1 loss, 30 min. Here is the method:
as §2

The test system of data set [6] is MCF7 cells. Kind of data set: Lumit immunoassay, phospho-Tyr701-STAT1. As to conditions: MCF7, PTPN2 or STUB1 loss, 30 min. The class given is cell-based, human. The procedure:
as §2

With IFNγ, in data set [1] (Stub1-null B16-F10, 24 h IFNγ), the “Protein expression of STAT1, STAT2, IRF1” value is “upregulation of STAT1, STAT2, and IRF1 after 24 h stimulation with IFNγ”. Also, the “Induction of interferon-stimulated genes” value in data set [2] is recorded as “enhanced response to IFNγ treatment”. Further, in data set [3], the “Early induction of IRF1 and phospho-Tyr701-STAT1” value is reported as “Loss of Stub1 lowers the stimulating threshold of IFNγ”. Further, the “Phosphorylation of Tyr701-STAT1” value in data set [4], in data set [5] and in data set [6] was “increased the cells’ response to IFNγ in a dose-dependent manner” each time.
As for “gStub1 #1 (guide GCATTGCTAAGAAGAAGCGC; chemistry not given here)”, the “PSMB8 (Fig. 1e)” value in data set [1] (IFNg 0.01 ng/ml) is 171356; in data set [1] (IFNg 0.03 ng/ml), 202198; in data set [1] (IFNg 0.10 ng/ml), 232103; in data set [1] (IFNg 0.30 ng/ml) it was 334603; in data set [1] (IFNg 1.00 ng/ml), 529221; in data set [1] (IFNg Nil) it was 173338. In addition, the “PSMB9 (Fig. 1e)” value in data set [1] (IFNg 0.01 ng/ml) turned out to be 214373; in data set [1] (IFNg 0.03 ng/ml), 947224; in data set [1] (IFNg 0.10 ng/ml), 2077116; in data set [1] (IFNg 0.30 ng/ml), 3663399; in data set [1] (IFNg 1.00 ng/ml), 4935730; in data set [1] (IFNg Nil), 17374. The “PSMB10 (Fig. 1e)” value in data set [1] (IFNg 0.01 ng/ml) was found to be 83490; in data set [1] (IFNg 0.03 ng/ml) it was 557217; in data set [1] (IFNg 0.10 ng/ml), 2055449; in data set [1] (IFNg 0.30 ng/ml), 3429074; in data set [1] (IFNg 1.00 ng/ml) it was 4476630; in data set [1] (IFNg Nil), 18816. For the same substance, the “STAT1 (Fig. 1e)” value in data set [1] (IFNg 0.01 ng/ml) turned out to be 156019; in data set [1] (IFNg 0.03 ng/ml), 430481; in data set [1] (IFNg 0.10 ng/ml), 714350; in data set [1] (IFNg 0.30 ng/ml), 1243340; in data set [1] (IFNg 1.00 ng/ml), 1537016; in data set [1] (IFNg Nil) it was 22848.
